Test results taken from patent US9575064B2, “Methods relating to testing for lysosomal storage disorders” (PerkinElmer Health Sciences, Inc., priority 2014, dated 2017).

Tests used:
[1] = molecular target: T1, acid β-glucocerebrosidase (ABG) (Homo sapiens, UniProt P04062); test: 6-plex DBS enzyme activity assay (FIA-MS/MS) with and without sodium oleate: ABG; format: biochemical
T1 construct: from tissue; host or cells: human dried blood spots (CDC control DBS: pooled cord blood, leukocyte-reduced adult blood)
T1 sequence (P04062 40-536): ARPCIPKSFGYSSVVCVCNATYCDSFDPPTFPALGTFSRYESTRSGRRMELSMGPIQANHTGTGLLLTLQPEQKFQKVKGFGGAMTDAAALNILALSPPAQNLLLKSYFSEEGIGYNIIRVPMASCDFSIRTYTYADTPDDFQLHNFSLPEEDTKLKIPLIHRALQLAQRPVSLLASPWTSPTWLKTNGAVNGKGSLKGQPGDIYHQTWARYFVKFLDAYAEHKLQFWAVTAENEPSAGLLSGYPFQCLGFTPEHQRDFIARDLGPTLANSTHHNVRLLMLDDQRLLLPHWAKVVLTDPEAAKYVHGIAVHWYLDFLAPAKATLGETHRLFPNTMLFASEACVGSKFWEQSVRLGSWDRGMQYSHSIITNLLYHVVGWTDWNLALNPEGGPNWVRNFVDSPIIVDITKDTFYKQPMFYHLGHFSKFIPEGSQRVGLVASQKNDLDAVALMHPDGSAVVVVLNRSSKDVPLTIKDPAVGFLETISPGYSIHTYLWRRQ

[2] = molecular target: T2, acid sphingomylenase (ASM) (Homo sapiens, UniProt P17405); test: 6-plex DBS enzyme activity assay (FIA-MS/MS) with and without sodium oleate: ASM; format: biochemical
T2 construct: from tissue; host or cells: human dried blood spots (CDC control DBS: pooled cord blood, leukocyte-reduced adult blood)
T2 sequence (P17405 47-631): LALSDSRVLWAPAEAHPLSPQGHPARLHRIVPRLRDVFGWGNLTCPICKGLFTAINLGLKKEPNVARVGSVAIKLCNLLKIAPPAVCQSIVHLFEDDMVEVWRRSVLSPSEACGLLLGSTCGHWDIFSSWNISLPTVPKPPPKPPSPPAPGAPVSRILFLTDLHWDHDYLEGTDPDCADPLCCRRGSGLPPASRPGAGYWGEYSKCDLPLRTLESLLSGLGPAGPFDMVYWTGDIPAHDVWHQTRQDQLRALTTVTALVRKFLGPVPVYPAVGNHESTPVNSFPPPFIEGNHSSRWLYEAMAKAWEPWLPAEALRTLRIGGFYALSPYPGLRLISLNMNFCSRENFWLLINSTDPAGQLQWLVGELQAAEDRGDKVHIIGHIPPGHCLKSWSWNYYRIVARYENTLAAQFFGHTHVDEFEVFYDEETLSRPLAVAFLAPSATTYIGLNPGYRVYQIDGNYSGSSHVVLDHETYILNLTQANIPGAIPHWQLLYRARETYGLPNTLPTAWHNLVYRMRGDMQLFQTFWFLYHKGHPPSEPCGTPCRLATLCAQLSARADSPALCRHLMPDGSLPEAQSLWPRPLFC

[3] = molecular target: T3, α-L-iduronidase (IDUA) (Homo sapiens, UniProt P35475); test: 6-plex DBS enzyme activity assay (FIA-MS/MS) with and without sodium oleate: IDUA; format: biochemical
T3 construct: from tissue; host or cells: human dried blood spots (CDC control DBS: pooled cord blood, leukocyte-reduced adult blood)
T3 sequence (P35475 28-653): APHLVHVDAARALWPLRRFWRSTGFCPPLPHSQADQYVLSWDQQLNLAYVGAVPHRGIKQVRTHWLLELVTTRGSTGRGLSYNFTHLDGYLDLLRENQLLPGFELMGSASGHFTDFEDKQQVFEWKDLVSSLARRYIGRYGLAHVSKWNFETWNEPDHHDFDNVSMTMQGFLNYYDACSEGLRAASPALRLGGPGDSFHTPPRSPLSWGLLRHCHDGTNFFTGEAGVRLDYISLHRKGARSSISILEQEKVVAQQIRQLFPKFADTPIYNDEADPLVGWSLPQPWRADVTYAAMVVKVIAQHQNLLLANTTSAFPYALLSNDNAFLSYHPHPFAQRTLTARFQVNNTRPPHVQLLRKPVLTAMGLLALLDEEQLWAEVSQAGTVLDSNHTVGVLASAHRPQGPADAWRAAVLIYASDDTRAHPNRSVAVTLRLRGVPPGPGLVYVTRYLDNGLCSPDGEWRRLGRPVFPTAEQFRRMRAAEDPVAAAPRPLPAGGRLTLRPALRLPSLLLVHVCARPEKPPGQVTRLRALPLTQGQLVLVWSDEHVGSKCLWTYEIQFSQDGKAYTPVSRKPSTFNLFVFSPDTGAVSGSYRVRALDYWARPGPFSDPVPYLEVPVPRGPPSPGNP

[4] = molecular target: T4, acid α-galactosidase A (GLA) (Homo sapiens, UniProt P06280); test: 6-plex DBS enzyme activity assay (FIA-MS/MS) with and without sodium oleate: GLA; format: biochemical
T4 construct: from tissue; host or cells: human dried blood spots (CDC control DBS: pooled cord blood, leukocyte-reduced adult blood)
T4 sequence (P06280 32-429): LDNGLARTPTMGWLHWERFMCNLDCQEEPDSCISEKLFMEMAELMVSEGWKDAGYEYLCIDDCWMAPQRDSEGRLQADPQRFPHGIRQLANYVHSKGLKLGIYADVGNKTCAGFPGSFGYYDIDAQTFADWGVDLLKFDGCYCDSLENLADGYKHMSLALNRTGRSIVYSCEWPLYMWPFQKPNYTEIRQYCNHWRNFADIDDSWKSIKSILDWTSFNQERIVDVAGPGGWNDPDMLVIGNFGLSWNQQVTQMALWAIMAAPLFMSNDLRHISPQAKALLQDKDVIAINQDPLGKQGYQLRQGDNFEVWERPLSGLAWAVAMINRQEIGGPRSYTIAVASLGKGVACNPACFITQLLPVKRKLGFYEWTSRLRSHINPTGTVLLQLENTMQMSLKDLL

[5] = molecular target: T5, acid α-glucosidase (GAA) (Homo sapiens, UniProt P10253); test: 6-plex DBS enzyme activity assay (FIA-MS/MS) with and without sodium oleate: GAA; format: biochemical
T5 construct: from tissue; host or cells: human dried blood spots (CDC control DBS: pooled cord blood, leukocyte-reduced adult blood)

[6] = molecular target: T6, galactocerebrosidase (GALC) (Homo sapiens, UniProt P54803); test: 6-plex DBS enzyme activity assay (FIA-MS/MS) with and without sodium oleate: GALC; format: biochemical; set-up: from tissue; host or cells: human dried blood spots (CDC control DBS: pooled cord blood, leukocyte-reduced adult blood)
T6 sequence (P54803 43-685): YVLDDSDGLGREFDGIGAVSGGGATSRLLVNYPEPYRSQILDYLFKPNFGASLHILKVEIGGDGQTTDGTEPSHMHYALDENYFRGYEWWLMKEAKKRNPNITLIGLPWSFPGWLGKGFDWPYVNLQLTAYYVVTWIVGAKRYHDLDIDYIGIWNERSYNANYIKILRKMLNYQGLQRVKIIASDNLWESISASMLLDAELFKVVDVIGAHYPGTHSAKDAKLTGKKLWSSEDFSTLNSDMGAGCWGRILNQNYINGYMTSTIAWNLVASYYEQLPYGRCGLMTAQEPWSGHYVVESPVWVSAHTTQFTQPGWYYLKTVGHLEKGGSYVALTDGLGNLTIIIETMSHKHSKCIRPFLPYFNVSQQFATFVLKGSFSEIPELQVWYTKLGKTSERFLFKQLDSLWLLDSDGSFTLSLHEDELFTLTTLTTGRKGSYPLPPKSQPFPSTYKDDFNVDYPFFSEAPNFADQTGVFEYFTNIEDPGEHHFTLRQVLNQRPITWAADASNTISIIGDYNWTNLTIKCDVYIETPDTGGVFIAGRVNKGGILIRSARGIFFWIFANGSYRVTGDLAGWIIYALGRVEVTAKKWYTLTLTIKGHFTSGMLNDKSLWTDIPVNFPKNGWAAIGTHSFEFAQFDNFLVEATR

[7] = cited from earlier work
[8] = molecular target: T6, galactocerebrosidase (GALC); settings: Zhang et al; Li et al; cited from earlier work
[9] = CDC High Control DBS, with sodium oleate
[10] = CDC High Control DBS, with vs without sodium oleate
[11] = CDC Low Control DBS, with sodium oleate
[12] = CDC Low Control DBS, with vs without sodium oleate
[13] = CDC Medium Control DBS, with sodium oleate
[14] = CDC Medium Control DBS, with vs without sodium oleate
[15] = Med/Low Control DBS ratio, with vs without sodium oleate
[16] = addition of sodium oleate, stated for the ceramides
[17] = two assays differing only by addition or lack of sodium oleate

In the case of `CCCCCCCC/C=C\CCCCCCCC(=O)[O-].[Na+]` [sodium oleate], the “Enzyme Activity ABG” value [1, 9] is reported as 11.46 µmol/L/h, the “Sodium oleate gain ABG” value [1, 10] is reported as 162% and the “Enzyme Activity ABG” value [1, 11] is reported as 0.95 µmol/L/h. The “Sodium oleate gain ABG” value [1, 12] was 159%, the “Enzyme Activity ABG” value [1, 13] was 5.44 µmol/L/h and the “Sodium oleate gain ABG” value [1, 14] was 175%. For the same compound, the “Sodium oleate gain of Med/Low ratio ABG” value [1, 15] was 120%, the “widening of the gap between Low Control DBS and Medium Control DBS, ABG” value [1, 16] was “approximately 25%” and the “enzyme activity ABG when sodium oleate was present” value [1, 17] was “improved”. The “CDC Med/Low Control DBS activity ratio ABG” value ([1]; with sodium oleate) was 5.8, the “Enzyme Activity ASM” value [2, 9] was 2.54 µmol/L/h and the “Sodium oleate gain ASM” value [2, 10] was 117%. The “Enzyme Activity ASM” value [2, 11] was 0.16 µmol/L/h, the “Sodium oleate gain ASM” value [2, 12] was 95% and the “Enzyme Activity ASM” value [2, 13] was 1.29 µmol/L/h. The “Sodium oleate gain ASM” value [2, 14] was 122%, the “Sodium oleate gain of Med/Low ratio ASM” value [2, 15] was 136% and the “widening of the gap between Low Control DBS and Medium Control DBS, ASM” value [2, 16] was “approximately 25%”. For the same compound, the “enzyme activity ASM when sodium oleate was present” value [2, 17] was “improved”, the “CDC Med/Low Control DBS activity ratio ASM” value ([2]; with sodium oleate) was 8.0 and the “Enzyme Activity IDUA” value [3, 9] was 11.95 µmol/L/h. The “Sodium oleate gain IDUA” value [3, 10] was 111%, the “Enzyme Activity IDUA” value [3, 11] was 0.72 µmol/L/h and the “Sodium oleate gain IDUA” value [3, 12] was 107%. For the same compound, the “Enzyme Activity IDUA” value [3, 13] was 5.86 µmol/L/h, the “Sodium oleate gain IDUA” value [3, 14] was 116% and the “Sodium oleate gain of Med/Low ratio IDUA” value [3, 15] was 114%. For the same compound, the “CDC Med/Low Control DBS activity ratio IDUA” value ([3]; with sodium oleate) was 8.1, the “Enzyme Activity GLA” value [4, 9] was 13.15 µmol/L/h and the “Sodium oleate gain GLA” value [4, 10] was 104%. For the same compound, the “Enzyme Activity GLA” value [4, 11] was 1.00 µmol/L/h, the “Sodium oleate gain GLA” value [4, 12] was 95% and the “Enzyme Activity GLA” value [4, 13] was 6.57 µmol/L/h. The “Sodium oleate gain GLA” value [4, 14] was 106%, the “Sodium oleate gain of Med/Low ratio GLA” value [4, 15] was 114% and the “CDC Med/Low Control DBS activity ratio GLA” value ([4]; with sodium oleate) was 6.5. The “Enzyme Activity GAA” value [5, 9] was 13.48 µmol/L/h, the “Sodium oleate gain GAA” value [5, 10] was 110% and the “Enzyme Activity GAA” value [5, 11] was 0.99 µmol/L/h. The “Sodium oleate gain GAA” value [5, 12] was 105%, the “Enzyme Activity GAA” value [5, 13] was 7.08 µmol/L/h and the “Sodium oleate gain GAA” value [5, 14] was 115%. For the same compound, the “Sodium oleate gain of Med/Low ratio GAA” value [5, 15] was 115%, the “CDC Med/Low Control DBS activity ratio GAA” value ([5]; with sodium oleate) was 7.2 and the “Enzyme Activity GALC” value [6, 9] was 6.72 µmol/L/h. The “Sodium oleate gain GALC” value [6, 10] was 126%, the “Enzyme Activity GALC” value [6, 11] was 0.45 µmol/L/h and the “Sodium oleate gain GALC” value [6, 12] was 118%. The “Enzyme Activity GALC” value [6, 13] was 3.22 µmol/L/h, the “Sodium oleate gain GALC” value [6, 14] was 133% and the “Sodium oleate gain of Med/Low ratio GALC” value [6, 15] was 117%. For the same compound, the “widening of the gap between Low Control DBS and Medium Control DBS, GALC” value [6, 16] was “approximately 25%”, the “enzyme activity GALC when sodium oleate was present” value [6, 17] was “improved” and the “CDC Med/Low Control DBS activity ratio GALC” value ([6]; with sodium oleate) was 7.1.
For `CCCCCCCC/C=C\CCCCCCCC(=O)O` [oleic acid], the “solubility in aqueous buffers” value [7] is given as “very difficult to dissolve” and the “effect on GALC enzyme” value [8] is given as “enhancer”.
